Read-outs that look alike come from different tables or passages of the source.
What was measured:
[1] = WST-1 cytotoxicity assay, Caco-2; type: cell-based; conditions: human, Caco-2 cells (colon adenocarcinoma); WST-1, 48 h incubation; read-out: EC50 class, cytotoxic effect, CL-4 (Caco-2)
Protocol: (§1) For this cytotoxic evaluation of the compounds the commercial available WST-1 assay (Roche) was used according to the manufacturer's instructions. The assay is based on the cleavage of the tetrazolium salt WST-1 by mitochondrial dehydrogenases found in viable cells. In general compounds were added to cells cultured in 96-well plates at 37° C. After 48 h of incubation 10 μl of WST-1 solution was added. The formazan dye was analyzed with an ELISA plate reader at (450 vs. 620) nm. CL-1: human acute myeloid leukemia, HL-60 CL-2: human cervix carcinoma, HeLa CL-3: human prostate carcinoma, PC-3 CL-4: human colon adenocarcinoma, Caco-2 CL-5: human breast adenocarcinoma, MCF-7

[2] = WST-1 cytotoxicity assay, HeLa; type: cell-based; conditions: human, HeLa cells (cervix carcinoma); WST-1, 48 h incubation; read-out: EC50 class, cytotoxic effect, CL-2 (HeLa)
Protocol: as §1

[3] = WST-1 cytotoxicity assay, MCF-7; type: cell-based; conditions: human, MCF-7 cells (breast adenocarcinoma); WST-1, 48 h incubation; read-out: EC50 class, cytotoxic effect, CL-5 (MCF-7)
Protocol: as §1

[4] = WST-1 cytotoxicity assay, HL-60; type: cell-based; conditions: human, HL-60 cells (acute myeloid leukemia); WST-1, 48 h incubation; read-out: EC50 class, cytotoxic effect, CL-1 (HL-60)
Protocol: as §1

[5] = WST-1 cytotoxicity assay, PC-3; type: cell-based; conditions: human, PC-3 cells (prostate carcinoma); WST-1, 48 h incubation; read-out: EC50 class, cytotoxic effect, CL-3 (PC-3)
Protocol: as §1

[6] = system: cyclin D1 in MCF-7 and HeLa cells; assay: Cyclin D1 down regulation (western blot marker analysis); type: cell-based, human
Protocol: MCF-7 (5×10^5 cells/well) and HeLa cells (1.5×10^5 cells/well) were seeded in 6-well plates and incubated at 37° C. over night. Compounds or DMSO (final solvent concentration 0.1%) were added to the cells and incubated for different times as indicated. Subsequently, cells were lysed in RIPA buffer for 30 min on ice and centrifuged for 20 min at 4° C. After addition of electrophoresis sample buffer (4×) and 50 mM DTT to the supernatant, samples were boiled for 4 min at 95° C. Samples (equivalent to 2×10^5 cells/well) were run on a 15% SDS gel followed by blotting onto PVDF membrane.
The membrane was blocked for 1 h in 10 mM Tris (pH 7.5), 100 mM NaCl, 0.1% Tween-20 and 5% non-fat dry milk (blocking buffer) and incubated for 1 h with mouse anti-hCyclin D1 monoclonal antibody (clone DCS-6, BD Biosciences) diluted to 1 μg/ml in blocking buffer. Blots were washed 3×10 min with 10 mM Tris (pH 7.5), 100 mM NaCl, 0.1% Tween-20 (washing buffer) and incubated with 0.7 μg/ml peroxidase-conjugated sheep anti-mouse IgG (Sigma) in blocking buffer for 1 h. After washing 3×10 min with washing buffer, the plot was developed with the ECL+ detection kit (Amersham Biosciences).

hPin1 = hPin1 (Homo sapiens, UniProt Q13526); assay: protease-coupled PPIase assay, hPin1; type: biochemical; conditions: 6 nM hPin1, substrate Ac-Ala-Ala-Ser(PO3H2)-Pro-Arg-pNA, trypsin, pH 7.8, 6° C.; read-out: IC50 class, Target T-1 (hPin1)
[7] = system: tumor cell lines (HL-60, HeLa, PC-3, Caco-2, MCF-7); assay: WST-1 cytotoxicity assay, tumor cell lines (panel statement); type: cell-based, human; conditions: WST-1, 48 h; table 4
Protocol: as §1

cathepsin B = cathepsin B (Homo sapiens, UniProt P07858); assay: cathepsin B assay; type: biochemical; conditions: 0.2 μg/ml cathepsin B, 2 mM Z-Arg-Arg-pNA, pH 5.8, 30° C., 30 min incubation; read-out: IC50 class, Target T-8 (Cathepsin)
Protocol: (§2) In order to investigate the impact of some of the inventive compounds on the activity of key proteases the following assay was performed: Protease activities were measured spectrophotometrically at 30° C. according to Schomburg and Salzmann (Schomburg, B.; Salzmann M. GBF: Enzyme Handbook. Springer Verlag, Berlin Heidelberg, 1991) and Bergmeyer et al. (Bergmeyer, H. U.; Bergmeyer, J.; Graβl, M. Methods of Enzymatic Analysis, Vol. V Enzymes 3: Peptides, Proteinases and Their Inhibitors. pp 55-371, VCH, Weinheim, 1988). The release of 4-nitroaniline was determined at 390 nm with a Spectramax Plus UV/Vis spectrophotometer (Molecular Devices). The cathepsin B assay was performed in a reaction mixture containing 0.2 μg/ml cathepsin B, 2 mM Z-Arg-Arg-pNA in 88 mM KH2PO4, 12 mM Na2HPO4, 1.33 mM EDTA, 0.03% Brij 35 (pH 5.8). The trypsin assay was carried out in a reaction mixture containing 0.1 μg/ml trypsin and 120 μM Ac-Ala-Ala-Ser(PO3H2)-Pro-Arg-pNA in 35 mM HEPES (pH 7.8) and the papain assay in a mixture consisting of 16 μg/ml papain and 2 mM Bz-DL-Arg-pNA in 10 mM Na2HPO4, 2 mM L-Cys, 5 mM EDTA (pH 6.5). In general, reactions were started by addition of peptide substrate after a 30 min incubation of 1-100 μM effector with given concentrations of enzyme.

hCyp18 = hCyp18 (Homo sapiens, UniProt P62937); assay: protease-coupled PPIase assay, hCyp18; type: biochemical; conditions: 10 nM hCyp18, substrate Suc-Ala-Phe-Pro-Phe-pNA, chymotrypsin, pH 7.8, 6° C.; read-out: IC50 class, Target T-3 (hCyp18)
LpCyp18 = LpCyp18 (Legionella pneumophila, UniProt Q5ZRZ4); assay: biochemical; conditions: IC50 class, Target T-4 (LpCyp18)
Trypsin = molecular target: T1, Trypsin (UniProt P00760); assay: trypsin assay; type: biochemical; conditions: 0.1 μg/ml trypsin, 120 μM Ac-Ala-Ala-Ser(PO3H2)-Pro-Arg-pNA, pH 7.8, 30° C., 30 min incubation; read-out: IC50 class, Target T-7 (Trypsin)
T1 sequence (P00760 1-246): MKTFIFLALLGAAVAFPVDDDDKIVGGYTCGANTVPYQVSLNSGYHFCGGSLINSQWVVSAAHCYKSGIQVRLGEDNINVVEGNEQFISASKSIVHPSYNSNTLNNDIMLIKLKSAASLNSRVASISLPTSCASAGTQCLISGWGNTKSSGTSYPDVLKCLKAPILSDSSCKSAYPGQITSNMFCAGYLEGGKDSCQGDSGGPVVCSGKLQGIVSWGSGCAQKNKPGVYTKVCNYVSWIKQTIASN
Protocol: as §2

Papain = molecular target: T2, Papain (Carica papaya, UniProt P00784); assay: papain assay; type: biochemical; conditions: 16 μg/ml papain, 2 mM Bz-DL-Arg-pNA, pH 6.5, 30° C., 30 min incubation; read-out: IC50 class, Target T-6 (Papain)
T2 sequence (P00784 134-345): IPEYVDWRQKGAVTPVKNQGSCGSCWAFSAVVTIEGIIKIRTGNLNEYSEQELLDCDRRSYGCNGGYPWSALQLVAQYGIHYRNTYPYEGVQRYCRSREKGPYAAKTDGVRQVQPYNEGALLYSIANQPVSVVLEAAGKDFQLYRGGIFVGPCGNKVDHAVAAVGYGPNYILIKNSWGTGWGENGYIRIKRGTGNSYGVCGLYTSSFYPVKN
Protocol: as §2

EcParvulin = EcParvulin (Escherichia coli, UniProt P0A9L5); assay: protease-coupled PPIase assay, EcParvulin; type: biochemical
hFKBP12 = hFKBP12 (Homo sapiens, UniProt P62942); assay: protease-coupled PPIase assay, hFKBP12; type: biochemical; conditions: 20 nM hFKBP12, substrate Suc-Ala-Phe-Pro-Phe-pNA, chymotrypsin, pH 7.8, 6° C.; read-out: IC50 class, Target T-2 (hFKBP12)
Hela cells = assay: DAPI staining; type: cell-based, human; conditions: FIG. 3
Protocol: Hela cells grown on poly-L-Lys-coated coverslips were fixed with 2% paraformaldehyde/MeOH.
Cellular DNA was stained with DAPI staining buffer (100 mM Tris (pH 7.4), 150 mM NaCl, 1 mM CaCl2, 0.5 mM MgCl2, 0.1% nonidet P-40, 1 μg/ml DAPI (Molecular Probes)). All the steps were performed at room temperature, and cells were washed two times with PBS after each step. Finally, cells were mounted in 80% glycerol/PBS.

HL-60 cells = assay: FACS measurements and TUNEL assay (Apo-Direct kit); type: cell-based, human; conditions: FIG. 2
Text: Enari M. Sakahira H. Yokoyama H. Okawa K. Iwamatsu A. Nagata S. A caspase-activated DNase that degrades DNA during apoptosis, and its inhibitor ICAD [erratum appears in Nature 1998 May 28; 393(6683):396.]. Nature. 391:43-50, 1998 • Darzynkiewicz Z. Juan G. Li X. Gorczyca W. Murakami T. Traganos F. Cytometry in cell necrobiology: analysis of apoptosis and accidental cell death (necrosis). Cytometry. 27:1-20, 1997
Apoptotic HL-60 cells were detected by FACS analysis of FITC-dUTP-labelled DNA breaks using the Apo-Direct kit (BD-Pharmingen) according to the manufacturer's protocol.

Sequence of EcParvulin (P0A9L5 whole entry): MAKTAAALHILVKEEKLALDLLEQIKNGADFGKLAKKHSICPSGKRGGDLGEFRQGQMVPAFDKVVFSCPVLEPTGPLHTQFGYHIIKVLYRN
Sequence of hPin1 (Q13526 whole entry): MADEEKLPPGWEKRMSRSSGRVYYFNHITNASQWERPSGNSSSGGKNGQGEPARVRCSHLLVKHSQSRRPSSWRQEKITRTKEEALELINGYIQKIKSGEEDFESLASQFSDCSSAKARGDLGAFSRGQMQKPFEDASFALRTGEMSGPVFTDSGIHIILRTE
Sequence of hCyp18 (P62937 whole entry): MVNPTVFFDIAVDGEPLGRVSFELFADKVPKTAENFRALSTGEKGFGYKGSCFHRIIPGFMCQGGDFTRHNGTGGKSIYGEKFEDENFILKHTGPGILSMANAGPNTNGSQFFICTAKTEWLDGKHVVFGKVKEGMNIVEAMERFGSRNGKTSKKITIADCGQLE
Sequence of LpCyp18 (Q5ZRZ4 1-164): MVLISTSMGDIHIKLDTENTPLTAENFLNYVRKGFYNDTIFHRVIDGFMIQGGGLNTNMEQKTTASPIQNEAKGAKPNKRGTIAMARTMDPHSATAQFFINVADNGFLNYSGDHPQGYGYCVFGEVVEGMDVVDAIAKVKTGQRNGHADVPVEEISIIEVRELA
Sequence of hFKBP12 (P62942 whole entry): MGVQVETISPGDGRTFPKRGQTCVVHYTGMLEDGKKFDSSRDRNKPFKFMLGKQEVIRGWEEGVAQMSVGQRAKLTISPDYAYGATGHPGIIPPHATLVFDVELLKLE

Row | Compound | EC50 at 48 h [1] | EC50 at 48 h [2] | EC50 at 48 h [3] | EC50 at 48 h [4] | EC50 at 48 h [5] | cyclin D1 down regulation [6] | IC50 (hPin1) | cytotoxic effect on the tumor cell lines tested [7] | IC50 (cathepsin B) | IC50 (hCyp18) | IC50 (LpCyp18) | IC50 (Trypsin) | IC50 (Papain) | IC50 (EcParvulin) | IC50 (hFKBP12) | induction of apoptosis (DAPI staining, fluorescence microscopy) (Hela cells) | IC50 (EcParvulin; 20 nM EcParvulin, substrate Suc-Ala-Phe-Pro-Phe-pNA, chymotrypsin, pH 7.8, 6° C., read-out: IC50 class, Target T-5 (EcParv)) | induction of apoptosis (FACS analysis of FITC-dUTP-labelled DNA breaks) (HL-60 cells)
1 | Cc1c(Cl)cc(NC(=S)Nc2ccccc2C(F)(F)F)c(O)c1Cl [Compound 261] | 10 to 50 µM | 10 to 50 µM | 10 to 50 µM | < 10 µM | 10 to 50 µM | – | – | – | – | – | – | – | – | – | – | – | – | –
2 | Cc1c(Cl)cc(NC(=O)NCCCCCCNC(=O)Nc2cc(Cl)c(C)c(Cl)c2O)c(O)c1Cl [Compound 673] | – | – | < 10 µM | – | – | particular relevance | < 1 µM | particular relevance | – | – | – | – | – | – | – | – | – | –
3 | CC(CC(=O)Nc1cc(Cl)c(O)c(Cl)c1)CC(C)(C)C (centres unmarked) [Compound 1273] | 10 to 50 µM | 50 to 100 µM | – | 10 to 50 µM | 10 to 50 µM | – | < 1 µM | particular relevance | > 100 µM | > 100 µM | > 100 µM | > 100 µM | > 100 µM | 1 to 10 µM | > 100 µM | – | – | –
4 | CC(C)(C)CC(C)(C)NC(=O)Nc1cc(Cl)c(O)c(Cl)c1 [Compound 703] | 10 to 50 µM | 10 to 50 µM | – | 10 to 50 µM | 10 to 50 µM | – | < 1 µM | particular relevance | > 100 µM | > 100 µM | > 100 µM | 50 to 100 µM | > 100 µM | 1 to 10 µM | > 100 µM | – | – | –
5 | CC(C)=CC(=O)Nc1cc(Cl)c(O)c(Cl)c1 [Compound 1296] | – | – | – | 50 to 100 µM | – | – | 1 to 10 µM | – | > 100 µM | 10 to 50 µM | > 100 µM | > 100 µM | > 100 µM | 10 to 50 µM | > 100 µM | – | – | –
6 | Oc1c(NCc2ccccc2Sc2ccc(Cl)cc2)ccc(F)c1F [Compound 399] | – | < 10 µM | < 10 µM | < 10 µM | < 10 µM | particular relevance | < 1 µM | particular relevance | 10 to 50 µM | 50 to 100 µM | 50 to 100 µM | – | > 100 µM | 10 to 50 µM | > 100 µM | induce apoptosis | – | –
7 | CC(C)(C)CC(C)(C)NC(=O)Nc1cc(Cl)cc(Cl)c1O [Compound 30] | < 10 µM | – | – | < 10 µM | – | particular relevance | 1 to 10 µM | – | – | > 100 µM | > 100 µM | – | – | – | > 100 µM | induce apoptosis | > 100 µM | –
8 | Cc1c(Cl)cc(NC(=S)Nc2ccc(C(F)(F)F)cc2)c(O)c1Cl [Compound 264] | < 10 µM | < 10 µM | < 10 µM | < 10 µM | < 10 µM | particular relevance | < 1 µM | particular relevance | > 100 µM | – | – | > 100 µM | > 100 µM | – | – | induce apoptosis | – | induce apoptosis

From patent US20110065760A1, “COMPOUNDS FOR THE INHIBITION OF ROTAMASES AND USE THEREOF” (Jerini AG, priority 2002, published 2011)
